Legend:
[1] = target: Protease (Human immunodeficiency virus 1) (UniProt Q9YQ12); test: Inhibition of HIV1 recombinant protease at 10 uM
Protease = Protease (Human immunodeficiency virus 1, UniProt Q9YQ12); test: Inhibition of HIV1 recombinant protease
[2] = tested on: Human immunodeficiency virus 1; test: Antiviral activity against HIV1; assay type: functional, organism-based

Protease, sequence (Q9YQ12 whole entry): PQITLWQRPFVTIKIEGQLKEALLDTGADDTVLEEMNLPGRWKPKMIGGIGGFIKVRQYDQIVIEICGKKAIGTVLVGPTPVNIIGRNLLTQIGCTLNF
Protease (Human immunodeficiency virus 1), sequence (Q9YQ12 as listed by the source): as the sequence (Q9YQ12 whole entry) above

inhibition [1]	IC50 (Protease)	IC50 [2]	Compound
30%			O=C(N[C@H]1c2ccccc2C[C@H]1O)C(Cc1ccccc1)S(=O)(=O)C(Cc1ccccc1)C(=O)N[C@H]1c2ccccc2C[C@H]1O (stereo partly specified)
	37.3 nM		N=[S+]([O-])([C@H](Cc1ccccc1)C(=O)N[C@H]1c2ccccc2C[C@H]1O)[C@@H](Cc1ccccc1)C(=O)N[C@H]1c2ccccc2C[C@H]1O
	154 nM		N=[S+]([O-])([C@H](Cc1ccccc1)C(=O)N[C@H]1c2ccccc2C[C@H]1O)[C@H](Cc1ccccc1)C(=O)N[C@H]1c2ccccc2C[C@H]1O
	2.5 nM	408 nM	N=[S+]([O-])(C[C@H](Cc1ccccc1)C(=O)N[C@@H]1c2ccccc2C[C@@H]1O)C[C@H](Cc1ccccc1)C(=O)N[C@@H]1c2ccccc2C[C@@H]1O
87%			N=[S+]([O-])(C(Cc1ccccc1)C(=O)N[C@H]1c2ccccc2C[C@H]1O)C(Cc1ccccc1)C(=O)N[C@H]1c2ccccc2C[C@H]1O (stereo partly specified)
75%			O=C(N[C@H]1c2ccccc2C[C@H]1O)C(Cc1ccccc1)C[S+]([O-])CC(Cc1ccccc1)C(=O)N[C@H]1c2ccccc2C[C@H]1O (stereo partly specified)
	21.1 nM		O=C(N[C@@H]1c2ccccc2C[C@@H]1O)[C@@H](Cc1ccccc1)C[S+]([O-])C[C@H](Cc1ccccc1)C(=O)N[C@@H]1c2ccccc2C[C@@H]1O (single isomer, unassigned)
	53.1 nM		O=C(N[C@H]1c2ccccc2C[C@H]1O)[C@H](Cc1ccccc1)C[S+]([O-])C[C@H](Cc1ccccc1)C(=O)N[C@H]1c2ccccc2C[C@H]1O
	> 10000 nM		O=C(N[C@H]1c2ccccc2C[C@H]1O)[C@@H](Cc1ccccc1)C[S+]([O-])C[C@H](Cc1ccccc1)C(=O)N[C@H]1c2ccccc2C[C@H]1O
15%			O=C(N[C@H]1c2ccccc2C[C@H]1O)C(CSCC(Cc1ccccc1)C(=O)N[C@H]1c2ccccc2C[C@H]1O)Cc1ccccc1 (stereo partly specified)

From ChEMBL document CHEMBL1137472, “Discovery of potent HIV-1 protease inhibitors incorporating sulfoximine functionality” (Bioorg Med Chem Lett, 2007)
